# Where a name gives a salt, the structure may show the parent alone. Read-outs that look alike come from different tables or passages of the source.
# Experiment: Water solubility (statement)
structure (smiles),measurement,setting,value
"CC(N)Cc1ccccc1 (racemic) [Amphetamine sulfate, racemic amphetamine sulfate]",solubility,,freely soluble
same,solubility,listed as Racemic amphetamine sulfate,freely water soluble

# — patent US20180256515A1, “ORAL AMPHETAMINE COMPOSITION” (Adare Pharmaceuticals, Inc., priority 2017, published 2018)
